# Data from patent publication US8629242B2, “Methods of inhibiting calcineurin with ApoE analogs” (Cognosci, Inc., priority 2007, dated 2014).
# Read-outs that look alike come from different tables or passages of the source. Where a SMILES comes first, the peptide text is derived from it. [ ]: non-standard residue; d: D form. Aib = CC(C)(N)C(=O)O
# Experiments:
# [1] = test system: peritoneal macrophages isolated from EAE mice; experiment: In vitro effect on LPS+IFN-γ-induced inflammatory mediators in macrophages from saline-treated EAE mice; type: cell-based; conditions: for inhibition of NO release: 72 hours after LPS+IFN-γ; for NOS2 expression (real-time PCR): normalized to 18S rRNA, fold change vs control
# Procedure: FIG. 5. In vitro effects of COG compounds on LPS and IFN-γ-induced production of inflammatory mediators in cultured peritoneal macrophages isolated from EAE mice. Conditioned medium with or without COG 133 or COG 112 was collected 45 hours after immunogen exposure for analysis of TNF-α (A) and IL-6 (B), or 72 hours after inflammatory stimulation for measurement of nitrite (C). Level of NOS2 expression was assessed by quantitative real-time PCR (D). NOS2 expression was first normalized by the endogenous control (18S rRNA) and then expressed as fold change compared to control group. Statistical analysis was performed by ANOVA and significance was shown as *(p<0.05) and **(p<0.001).
# We then examined the ability of COG 112 (SEQ ID NO: 5) and COG 133 (SEQ ID NO: 1) to inhibit the in vitro release of NO, TNF-α and IL-6 using macrophages obtained from saline-treated EAE mice on dpi 35. Conditioned medium with or without COG 133 or COG 112 was collected 45 hours after immunogen (LPS+IFN-γ) exposure for analysis of TNF-α and IL-6, or 72 hours after stimulation for measurement of nitrite. […] Levels of NOS2 expression were quantified by real-time PCR. NOS2 expression was first normalized by the endogenous control (18S rRNA) and then expressed as fold change compared to control group.
# [2] = test system: PLP-induced relapsing-remitting experimental autoimmune encephalomyelitis (EAE) model; experiment: PLP-induced relapsing-remitting EAE model; type: in vivo; parameters: CSmax during relapse (mean ± SEM) / Area under curve (mean ± SEM): scale not given here; conditions: 4 mg/kg s.c.; for Area under curve (mean ± SEM): clinical score vs days post-inoculation, out to 60 days; for CSmax during relapse (mean ± SEM): maximal clinical score during relapse; for Relapse Rate: number of animals experiencing a relapse
# Procedure: To further compare the activity of the various ApoE analogs, the efficacy of the analogs was assessed in a PLP-induced relapsing-remitting experimental autoimmune encephalomyelitis (EAE) model. […] The second dose was administered the next day followed by three times a week (M, W, F). Relapse rate represents the number of animals experiencing a relapse, while the CSmax indicates the maximal clinical score during relapse. Area under curve represents the area under the curve in a plot of clinical score vs. days post-inoculation (out to 60 days). […] The improvement in relapse rate and clinical score in the EAE model by ApoE analog treatment may be due, in part, to the remyelination-promoting effect of the ApoE analogs.
# [3] = Maximum tolerated dose; type: in vivo; conditions: for MTD: in vivo
# Source text: To fully evaluate the use of ApoE analogs as therapeutic compounds, the margin of safety should also be determined. Towards that end, we determined the maximum tolerated dose of COG 112, COG 248, and COG 345 when administered by intravenous and subcutaneous injection.
# [4] = test system: animal model of human diseases; experiment: Minimum effective dose in animal models; type: in vivo
# [5] = test system: cerebellar slices; experiment: Lysolecithin-induced demyelination in organotypic cerebellar slice culture; type: cell-based, rat
# Procedure: FIG. 7. COG 112 promotes remyelination in a lysolecithin-induced demyelination model in cerebellum slice culture. Cerebellum slices from postnatal day 10 rat pups were cultured for 7 days. Lysolecithin was added to a final concentration of 0.5 mg/ml and then removed after incubation overnight (15˜17 hr). 1 μM COG 112 was added to the slice and cultured for 5 days. The cerebellar slices were either immunohistologically stained with MBP; or collected and lysed for western blotting with myelin marker MBP. (A) naïve slice; (B) 2 days after lysolecithin treatment; (C) day 7 after lysolecithin treatment; (D) day 7 after lysolecithin treatment with COG 112 added on day 3; (E) Western blot of cerebellar lysates probed for MBP; (F) Densitometry analysis of blots probed for MBP. The density of each MBP band was normalized to density of β-actin band. One-way ANOVA was used for statistical analysis. n=4
# FIG. 8. COG 112 prevents lysolecithin-induced cell death of oligodendrocytes in cerebellum slice culture. Cerebellum slices from postnatal day 10 rat pups were cultured for 7 days. Lysolecithin was added to a final concentration of 0.5 mg/ml with and without COG 112 (1 μM). After incubation overnight (16 hr), medium was replaced with fresh lysolecithin-free medium, but still containing COG 112 for the COG 112 treatment group. After two days, the cerebellar slices were collected and lysed for western blotting with myelin marker MBP (left panel) and oligodendrocyte marker CNPase (right panel). The density of each MBP or CNPase band was normalized to the density of the β-actin band. One-way ANOVA was used for statistical analysis. n=4, * p<0.01.
# FIG. 19. COG 345 promotes remyelination in lysolecithin-induced demyelination model of cerebellum slices. Significant demyelination was induced by lysolecithin (0.5 mg/ml) in cerebellar slices. COG 112 or COG 345 (1 μM) was added on day 3 when full demyelination was achieved. 4 days later, the slices were fixed and double stained with myelin marker MBP (green) and Purkinje cell marker calbindin (red). (A) Untreated-slices; (B) lysolecithin-treated slices; (C) COG 112-treated slices after lysolecithin exposure; (D) COG 345-treated slices after lysolecithin exposure. E-F. ApoE analogs protect OPCs from LPS-induced cell death in OPC/microglia mixed culture. OPCs and microglia derived from brain culture of P2 rat pups were plated in 96-well plates in 1:1 ratio. LPS (10 ng/ml) together with 1 μM of the indicated ApoE analogs was added to the cultures. After 24 hours, OPC cell death was quantified by LDH assay (E) and MTT assay (F). Statistical analysis was conducted by one-way ANOVA followed by Dunnett comparison vs. LPS group. * P<0.01, ** P<0.001, n=3.
# The effect of COG peptides (i.e. ApoE analogs) on remyelination in a second model of demyelination was examined. For this series of experiments, a lysolecithin-induced in vitro demyelination model in an organotypic cerebellar slice culture was used. Parasagittal slices of postnatal Day 10 (P10) rat cerebellum were cut at 400 μm using a Tissue Slicer (SD Instruments, Grants Pass, Oreg.). After culture in conditioned medium for 7 days in vitro (DIV), fresh medium with lysolecithin (0.5 mg/ml) was added to the slice and incubated overnight (15-17 hours) at 37° C. The lysolecithin-containing medium was then replaced with fresh medium without lysolecithin. On day 3, COG 112 (1 μM) was added to the slice with fresh medium. After incubation for 5 days, the cerebellar slices were either immunohistologically stained for myelin basic protein (MBP), a myelin marker, (FIG. 7A-D) or lysed for western blotting and subsequent probing for MBP (FIGS. 7E and F). […] Similar results were obtained from the Western blot analysis of lysates of the cerebellar slices (FIGS. 7E and F). […] In addition, the blots of cerebellar slice lysate were also probed for oligodendrocyte (OL) marker 2′,3′-Cyclic Nucleotide 3′-Phosphodiesterase (CNPase). […]
# [6] = sc, subcutaneous injection, read-out: Maximum Tolerated Dose Subcutaneous
# [7] = intravenous injection, read-out: Maximum Tolerated Dose Intravenous
# [8] = 1 μM added on day 3 after lysolecithin, 5 days
# [9] = 1 μM added together with lysolecithin, 2 days after
# [10] = 45 hours after LPS+IFN-γ, dose-dependent suppression
Compound,inhibition of NO release ([1]; 5 μM),NOS2 expression (real-time PCR) [1],Area under curve (mean ± SEM) [2],CSmax during relapse (mean ± SEM) [2],Relapse Rate [2],"MTD [3, 6] [mg/kg]","MTD [3, 7] [mg/kg]",also measured
CC(=O)N[C@@H](CC(C)C)C(=O)N[C@@H](CCCNC(=N)N)C(=O)N[C@H](C(=O)N[C@@H](CCCNC(=N)N)C(=O)N[C@@H](CC(C)C)C(=O)N[C@@H](C)C(=O)N[C@@H](CO)C(=O)N[C@@H](Cc1c[nH]cn1)C(=O)N[C@@H](CC(C)C)C(=O)N[C@@H](CCCNC(=N)N)C(=O)N[C@@H](CCCCN)C(=O)N[C@@H](CC(C)C)C(=O)N[C@@H](CCCNC(=N)N)C(=O)N[C@@H](CCCCN)C(=O)N[C@@H](CCCNC(=N)N)C(=O)N[C@@H](CC(C)C)C(=O)N[C@@H](CC(C)C)C(N)=O)C(C)C [COG 133],about 37%,affect NOS2 expression,25.3 ± 8.3,3.2 ± 0.7,7/14,> 100,16,"suppression of IL-6 ([1]; 5 μM, 45 hours after LPS+IFN-γ): only moderate, yet statistically significant, suppression; suppression of TNF-α ([1]; 5 μM, 45 hours after LPS+IFN-γ): only moderate, yet statistically significant, suppression; Minimum Effective Dose (model) ([4]; models: CIA, EAE): 1 mg/kg (CIA, EAE)"
"CC(=O)NC(=N)NCCC[C@H](NC(=O)[C@H](CCCCN)NC(=O)[C@H](CCCNC(=N)N)NC(=O)[C@H](CC(C)C)NC(=O)[C@H](CCCCN)NC(=O)[C@H](CCCNC(=N)N)NC(=O)[C@H](CC(C)C)NC(=O)C(C)(C)NC(=O)[C@H](CO)NC(=O)[C@H](C)NC(=O)[C@H](CC(C)C)NC(=O)[C@H](CCCNC(=N)N)NC(=O)[C@@H](NC(=O)[C@H](CCCNC(=N)N)NC(=O)[C@H](CC(C)C)NC(C)=O)C(C)C)C(=O)N[C@@H](CC(C)C)C(=O)N[C@@H](CC(C)C)C(N)=O [COG 345, acetyl-LRVRLAS-Aib-LRKLRK(acetyl-Arg)LL-amide] (Ac-LRVRLAS[Aib]LRKLRKR(Ac)LL-NH2)",–,–,15.5 ± 2.5,1.4 ± 0.2,4/15,> 150,20 to 25,"myelination (MBP/calbindin double staining) ([5]; 1 μM added three days after lysolecithin, 4 days): dramatically restored myelination; improvement in relapse rate and maximum clinical score during relapse [2]: significant improvement; safety profile by intravenous injection ([3]; compared to the other analogs on a molar basis): superior safety profile; Minimum Effective Dose (model) ([4]; model: EAE): 1 mg/kg (EAE)"
Ac-RQIKIWFQNRRMKWKKCLRVRLASHLRKLRKRLL-NH2 [COG 112],completely inhibited,more potent effect than COG 133,16.7 ± 3.6,2.4 ± 0.8,5/14,> 100,28,"MBP levels (Western blot) [5, 8]: increased MBP levels; level of MBP protein (immunostaining) [5, 8]: robustly elevated; prevention of lysolecithin-induced demyelination (MBP Western blot) [5, 9]: did not prevent lysolecithin-induced demyelination; prevention of oligodendrocyte cell death (CNPase Western blot) [5, 9]: did prevent oligodendrocyte cell death; level of CNPase (Western blot) ([5]; 1 μM post-treatment, data not shown): significantly increased; concentration giving complete inhibition of IL-6 levels [1, 10]: about 5 μM; concentration giving complete inhibition of TNF-α levels [1, 10]: about 5 μM; Minimum Effective Dose (model) ([4]; models: EAE, TBI): 1 mg/kg (EAE, TBI)"
